From US20200190067A1, “PHOTO-SWITCHABLE CHEMICAL INDUCERS OF DIMERIZATION FOR CONTROL OF PROTEIN FUNCTION IN CELLS BY LIGHT” (Max-Planck-Gesellschaft zur Förderung der Wissenschaften …, priority 2017, published 2020)

Test: UV-Vis absorption spectra
Type: physicochemical
Settings: 50 μM dimerizer in PBS buffer (pH 7.4, 0.5% DMSO)
Procedure: FIG. 1: UV-Vis absorption spectra of TMP—PC—Cl (black) and 4-CmTMP—PC—Cl (red). A solution of 50 μM of the respective dimerizer in PBS buffer (pH 7.4, 0.5% DMSO) was subjected to UV-Vis absorption analysis (FIG. 1). 0.5% DMSO in PBS was used as the blank.
UV-Vis absorption spectra were recorded using SHIMADZU UV-2401PC UV-Vis Recording Spectrophotometer. A solution of 50 μM of the respective dimerizer in PBS buffer (pH 7.4, 0.5% DMSO) was subjected to UV-Vis absorption analysis (FIG. 1). 0.5% DMSO in PBS was used as the blank.

COc1cc(COC(=O)NCCCOCCOCCOCCCNC(=O)COc2c(OC)cc(Cc3cnc(N)nc3N)cc2OC)c([N+](=O)[O-])cc1OCCOCCOCCOCCOCCOCCCCCCCl [TMP—PC—Cl, 4-((21-Chloro-3,6,9,12,15-pentaoxahenicosyl)oxy)-5-methoxy-2-nitrobenzyl (1-(4-((2,4-diaminopyrimidin-5-yl)methyl)-2,6-dimethoxyphenoxy)-2-oxo-7,10,13-trioxa-3-azahexadecan-16-yl)carbamate]
absorption peak: 348.5 nm
